In one assay the test system is infected diabetic wounds. Nature of the assay: Wound healing animal study, infected diabetic wounds. Conditions: after 10 days, rats. It counts as in vivo. The protocol: (§1) Based on these achievements, the efficiency of hPG-b-PEtO for diabetic wound healing in animals was investigated. For this purpose, an animal study was performed in two different groups of rats with infected non-diabetic wounds (FIG. 12A) and infected diabetic wounds (FIG. 12B). […] Saline buffer without additions was used as control. The ability of the copolymer to heal wounds was investigated by measuring the wound contraction at different treatment times.

In assay [1] the test system is infected non-diabetic wounds. Nature of the assay: Wound healing animal study, infected non-diabetic wounds. The conditions noted are these: after 10 days, rats. It counts as in vivo. As for the experimental part: as §1

For the compound `O=C1NC(=O)C(c2ccccc2)(c2ccccc2)N1` [phenytoin], the figures for the wound closure area (in the assay on infected diabetic wounds; in assay [1]) were 62% and 90%, respectively.

The values above are taken from patent US20260224611A1, “POLYOL-B-POLYOXAZOLINE COPOLYMERS” (FREIE UNIVERSITÄT BERLIN, priority 2023, published 2026).
